One series has as its system Sandhoff mice. The note with it: Aspirin combined with substrate reduction therapy; cited from earlier work.
The nature of series [1]: Dynamic vapour sorption (DVS). The format is physicochemical. The note with it: high relative humidity. The text has this:
In addition, the behaviour of the sample of the Form 3 crystalline form of compound of formula (I) obtained by equilibration with ethyl acetate was investigated under variable water vapour pressures (DVS measurement). At the highest relative humidity of 95% the sample absorbed about 1.2% of water that was released when the relative humidity was returned to the 50% RH. The amount of absorbed water is small, and the water sorption is reversible. […] For Form 2, at high relative humidity the sample absorbed about 18% of water; however, most of the absorbed water was released when the relative humidity was returned to the 50% RH.
Dynamic vapour sorption (DVS) measurements were performed with an SPS11-100n “Sorptions Prufsystem” from ProUmid (formerly “Projekt Messtechnik”), August-Nagel-Str. 23, 89079 Ulm (Germany). About 5 mg to 20 mg of sample was put into an aluminum sample pan. Humidity change rates of 5% per hour were used.

The subject of series [2] is Sandhoff mouse model (Hexb (−/−)). Nature of the series: Survival study in Sandhoff mouse model. The format is in vivo. The note with it: Hexb (−/−) mice, treated vs vehicle/untreated. The text has this:
(strain: B6; 129S4-Hexbtm1Rlp/J). The mouse line was maintained by crossing homozygous −/− males with heterozygous females (generating litters with 50%−/− and 50%+/−) under specific pathogen-free conditions. All mice were housed in individual, ventilated cages (IVCs) with 12-h light/dark cycles with food and water ad libitum. Young-adult mice of the same genetic C57BL/6 background were from Jackson Laboratories. Breeding of Hexb mutants will target needs of the “Long-term” cohorts first, followed by the “16-week” biomarker study.
Cohort 1: There were a total of 6 dose groups and 2 vehicle groups using both Hexb+/− and Hexb−/− animals. […] Dosing occurred daily from day 30 to day 170, unless the animal was prematurely euthanized per protocol.
A subsequent study to explore lower doses was also performed (in the same manner as in Example 2) in which doses of 0.02, 0.06, 0.2 and 0.5 mg/kg/day were used. […] It is unclear why the 0.06 mg/kg/day had less survival as formulations were checked and confirmed accurate dosing (internal data).

We go through three compounds from patent US20250120958A1, “Treatment of GM2 Gangliosidosis” (Azafaros B.V., priority 2022, published 2025).

With `CC(=O)Oc1ccccc1C(=O)O` [Aspirin], in the series with Sandhoff mice, the “maximum improvement of survival” value is 73% and the “synergy, improvement in survival” value is listed as 11%.
`OC[C@H]1[C@@H](O)[C@H](O)[C@@H](O)CN1CCCCCOCc1ccc(-c2ccccc2)c(F)c1` [Form 2]: the “water absorbed (DVS)” value in series [1] is on record as “about 18%”.
In the case of `OC[C@H]1[C@@H](O)[C@H](O)[C@@H](O)CN1CCCCCOCc1ccc(-c2ccccc2)c(F)c1` [compound of formula (I)], the “increase in survival / life expectancy” value in series [2] was “at least 22%”.
